Values of other authors, collected in patent publication US5846995A, “Substituted 1, 2, 3, 4-tetrahydro-2-dibenzofuranamines and 2-amino-cyclohepta (6, 7-B) Benzofurans” (priority 1997, dated 1998).

Conditions: background

## CNS(=O)(=O)Cc1ccc2[nH]cc(CCN(C)C)c2c1.O=C(O)CCC(=O)O [Compound I, 3-[2-(dimethylamino)ethyl]-N-methyl-1H-indole-5-methanesulfonamide butane-1,4-dioate (1:1)]
  bioavailability: low bioavailability
